From patent publication EP4509511A1, “SUBSTITUTED SPIRO-ISOXAZOLINYL LACTAMS, SALTS THEREOF AND THEIR USE AS HERBICIDALLY ACTIVE SUBSTANCES” (Bayer Aktiengesellschaft, priority 2023, dated 2025)

Legend:
[1] = tested on: KCHSC; test: Herbicidal pre-emergence action - Part I; format: in vivo, Kochia scoparia
Source text: (§1) Seeds of mono- and dicotyledonous weed plants were sown in plastic pots (double sowings with one species of mono- and one species of dicotyledonous weed plants per pot), in sandy loam, and covered with soil. The compounds according to the invention, formulated in the form of wettable powders (WP) or as emulsifiable concentrates (EC), were applied to the surface of the covering soil as aqueous suspension or emulsion, with the addition of 0.5% of an additive, at an application rate of 600 1 of water per hectare (converted). Following treatment, the pots were placed in a greenhouse and kept under optimum growth conditions for the test plants. The visual grading of the damage to the test plants was carried out after ca. 3 weeks in comparison to untreated controls (herbicidaleffectinpercent(%):100%effect=plantshavediedoff,0%effect=ascontrolplants). [formula]
(§2) Tables A1 to A12, below, show the effects of selected compounds of the general formula (I) according to table 1 on various harmful plants and an application rate corresponding to 1280 g/ha or below obtained by the experimental procedure mentioned above. Table A1: pre-emergence activity at 1280g/ha against ABUTH in %

[2] = tested on: VERPE; test: Herbicidal post-emergence action - Part I; format: in vivo, Veronica persica; conditions: one-leaf stage, rated visually after about 3 weeks vs untreated controls
Procedure, shortened: (§3)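 Activity was scored visually as % damage (100% = dead, 0% = like untreated) about 3 weeks after treatment. Plants at the one-leaf stage, 2-3 weeks old, were sprayed with WP/EC formulations plus 0.5% additive (600 L/ha water, up to 1280 g/ha). Plants were grown in sandy loam in a greenhouse.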

[3] = tested on: MATIN; test: Herbicidal pre-emergence action - Part I; format: in vivo, Matricaria inodora; conditions: visual grading after ca. 3 weeks vs untreated controls
Source text: as §1, §2

[4] = tested on: KCHSC; test: Herbicidal post-emergence action - Part I; format: in vivo, Kochia scoparia; conditions: one-leaf stage, rated visually after about 3 weeks vs untreated controls
Procedure, shortened: as §3

[5] = tested on: POAAN; test: Herbicidal pre-emergence action - Part I; format: in vivo, Poa annua; conditions: visual grading after ca. 3 weeks vs untreated controls
Source text: as §1, §2

[6] = tested on: LOLRI; test: Herbicidal pre-emergence action - Part I; format: in vivo, Lolium rigidum; conditions: visual grading after ca. 3 weeks vs untreated controls
Source text: as §1, §2

[7] = tested on: DIGSA; test: Herbicidal post-emergence action - Part I; format: in vivo, Digitaria sanguinalis; conditions: 1280 g/ha, one-leaf stage, rated visually after about 3 weeks vs untreated controls
Procedure: (§4) Seeds of mono- and dicotyledonous weed plants were placed in plastic pots in sandy loam soil (doubly sown with in each case one species of mono- or dicotyledonous weed plants per pot), covered with soil and cultivated in a greenhouse under controlled growth conditions. 2 to 3 weeks after sowing, the test plants were treated at the one-leaf stage. The compounds of the invention, formulated in the form of wettable powders (WP) or as emulsion concentrates (EC), were applied onto the green parts of the plants as aqueous suspension or emulsion with addition of 0.5% additive at a water application rate of 600 liters per hectare (converted). After the test plants had been kept in the greenhouse under optimum growth conditions for about 3 weeks, the activity of the preparations was rated visually in comparison to untreated controls. For example, 100% activity = the plants have died, 0% activity = like control plants. Tables B1 to B12, below, show the effects of selected compounds of the general formula (I) according to table 1 on various harmful plants and an application rate corresponding to 1280 g/ha or below obtained by the experimental procedure mentioned above. Table B1a: post-emergence activity at 1280g/ha against ABUTH in %

[8] = tested on: STEME; test: Herbicidal post-emergence action - Part I; format: in vivo, Stellaria media; conditions: one-leaf stage, rated visually after about 3 weeks vs untreated controls
Procedure, shortened: as §3

[9] = tested on: STEME; test: Herbicidal pre-emergence action - Part I; format: in vivo, Stellaria media; conditions: visual grading after ca. 3 weeks vs untreated controls
Procedure, shortened: (§5)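 Weed seeds sown in sandy loam pots (one mono- and one dicot species per pot) and covered with soil; compounds as WP or EC applied to covering soil surface as aqueous suspension/emulsion with 0.5% additive at 600 l water/ha, rates 1280 g/ha or below. Greenhouse; visual damage rated after ca. 3 weeks vs untreated (0–100%).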

[10] = tested on: ECHCG; test: Herbicidal pre-emergence action - Part I; format: in vivo, Echinochloa crus-galli; conditions: visual grading after ca. 3 weeks vs untreated controls
Procedure, shortened: as §5

[11] = tested on: ALOMY; test: Herbicidal pre-emergence action - Part I; format: in vivo, Alopecurus myosuroides; conditions: visual grading after ca. 3 weeks vs untreated controls
Source text: as §1, §2

[12] = tested on: AMARE; test: Herbicidal pre-emergence action - Part I; format: in vivo, Amaranthus retroflexus; conditions: visual grading after ca. 3 weeks vs untreated controls
Procedure, shortened: as §5

[13] = tested on: AMARE; test: Herbicidal post-emergence action - Part I; format: in vivo, Amaranthus retroflexus; conditions: one-leaf stage, rated visually after about 3 weeks vs untreated controls
Procedure, shortened: as §3

[14] = tested on: SETVI; test: Herbicidal pre-emergence action - Part I; format: in vivo, Setaria viridis; conditions: visual grading after ca. 3 weeks vs untreated controls
Source text: as §1, §2

[15] = tested on: SETVI; test: Herbicidal post-emergence action - Part I; format: in vivo, Setaria viridis; conditions: one-leaf stage, rated visually after about 3 weeks vs untreated controls
Procedure: as §4

[16] = tested on: ECHCG; test: Herbicidal post-emergence action - Part I; format: in vivo, Echinochloa crus-galli; conditions: 1280 g/ha, one-leaf stage, rated visually after about 3 weeks vs untreated controls
Procedure: as §4

[17] = tested on: LOLRI; test: Herbicidal post-emergence action - Part I; format: in vivo, Lolium rigidum; conditions: one-leaf stage, rated visually after about 3 weeks vs untreated controls
Procedure: as §4

[18] = tested on: DIGSA; test: Herbicidal pre-emergence action - Part I; format: in vivo, Digitaria sanguinalis; conditions: visual grading after ca. 3 weeks vs untreated controls
Source text: as §1, §2

[19] = tested on: POAAN; test: Herbicidal post-emergence action - Part I; format: in vivo, Poa annua; conditions: one-leaf stage, rated visually after about 3 weeks vs untreated controls
Procedure: as §4

[20] = tested on: ABUTH; test: Herbicidal post-emergence action - Part I; format: in vivo, Abutilon theophrasti; conditions: one-leaf stage, rated visually after about 3 weeks vs untreated controls
Procedure: as §4

[21] = tested on: ALOMY; test: Herbicidal post-emergence action - Part I; format: in vivo, Alopecurus myosuroides; conditions: one-leaf stage, rated visually after about 3 weeks vs untreated controls
Procedure: as §4

[22] = tested on: MATIN; test: Herbicidal post-emergence action - Part I; format: in vivo, Matricaria inodora; conditions: 1280 g/ha, one-leaf stage, rated visually after about 3 weeks vs untreated controls
Procedure: as §4

[23] = Table A10a, 1280 g/ha, visual grading after ca. 3 weeks vs untreated controls

| Compound | pre-emergence activity at 1280g/ha against KCHSC in % [1, 23] [%] | post-emergence activity at 1280g/ha against VERPE in % [2] [%] | pre-emergence activity at 320g/ha against MATIN in % [3] [%] | pre-emergence activity at 1280g/ha against MATIN in % [3] [%] | post-emergence activity at 1280g/ha against KCHSC in % [4] [%] | pre-emergence activity at 320g/ha and against POAAN in % [5] [%] | pre-emergence activity at 1280g/ha and against POAAN in % [5] [%] | pre-emergence activity at 1280g/ha against LOLRI in % [6] [%] | post-emergence activity at 1280g/ha against STEME in % [8] [%] | pre-emergence activity at 320g/ha against STEME in % [9] [%] | pre-emergence activity at 1280g/ha against STEME in % [9] [%] | pre-emergence activity at 320g/ha against ECHCG in % [10] [%] | pre-emergence activity at 1280g/ha against ECHCG in % [10] [%] | pre-emergence activity at 1280g/ha against AMARE in % [12] [%] | post-emergence activity at 1280g/ha against AMARE in % [13] [%] | pre-emergence activity at 1280g/ha and against SETVI in % [14] [%] | post-emergence activity at 1280g/ha against SETVI in % [15] [%] | post-emergence activity at 1280g/ha against ECHCG in % [16] [%] | pre-emergence activity at 1280g/ha against DIGSA in % [18] [%] | also measured |
| --- | --- | --- | --- | --- | --- | --- | --- | --- | --- | --- | --- | --- | --- | --- | --- | --- | --- | --- | --- | --- |
| N#Cc1ncccc1C1=NOC2(CCN(Cc3ccccc3F)C2=O)C1 (racemic) [Compound I-35] | 90 | 90 | 90 | 90 | 90 | 100 | 100 | 90 | 90 | 90 | 90 | 90 | 100 | 90 | 90 | 100 | 90 | 90 | 100 | pre-emergence activity at 1280g/ha against KCHSC in % ([1]; 1280 g/ha, 504 h): 90%; pre-emergence activity at 320g/ha against LOLRI in % ([6]; 320 g/ha): 90%; post-emergence activity at 1280g/ha against DIGSA in % [7]: 90%; pre-emergence activity at 1280g/ha against ALOMY in % [11]: 90%; post-emergence activity at 320g/ha against AMARE in % ([13]; 320 g/ha): 90%; post-emergence activity at 1280g/ha against LOLRI in % [17]: 90%; pre-emergence activity at 320g/ha against DIGSA in % ([18]; 320 g/ha): 100% |
| Cc1ccsc1C1=NOC2(CCCN(Cc3ccccc3F)C2=O)C1 (racemic) [Compound I-1, 7-(2-Fluorobenzyl)-3-(3-methyl-2-thienyl)-1-oxa-2,7-diazaspiro[4.5]dec-2-en-6-one] | 90 | 90 | 90 | 100 | 90 | 100 | 100 | 90 | 90 | 90 | 90 | 100 | 100 | 90 | 90 | 100 | 90 | 90 | 100 | pre-emergence activity at 1280g/ha against KCHSC in % ([1]; Table A10b, title 1280g/ha, application rate column prints 320 g/ha, visual grading after ca. 3 weeks vs untreated controls): 90%; post-emergence activity at 80g/ha against POAAN in % ([19]; 80 g/ha): 90%; post-emergence activity at 320g/ha against POAAN in % ([19]; 320 g/ha): 90%; post-emergence activity at 1280g/ha against POAAN in % ([19]; 1280 g/ha): 90%; post-emergence activity at 320g/ha against ABUTH in % ([20]; 320 g/ha): 90%; post-emergence activity at 1280g/ha against ABUTH in % ([20]; 1280 g/ha): 90%; post-emergence activity at 320g/ha against VERPE in % ([2]; 320 g/ha): 90%; post-emergence activity at 320g/ha against KCHSC in % ([4]; 320 g/ha): 90%; post-emergence activity at 320g/ha against STEME in % ([8]; 320 g/ha): 90%; pre-emergence activity at 80g/ha against STEME in % ([9]; 80 g/ha): 90%; pre-emergence activity at 320g/ha against AMARE in % ([12]; 320 g/ha): 90%; pre-emergence activity at 320g/ha and against SETVI in % ([14]; 320 g/ha): 100%; post-emergence activity at 320g/ha against SETVI in % ([15]; 320 g/ha): 90%; post-emergence activity at 1280g/ha against ALOMY in % [21]: 90%; post-emergence activity at 1280g/ha against MATIN in % [22]: 90% |
